Measured values reported in PubChem BioAssay (NCI).
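Protocol summary: plate cells (96-well), add compound at 5 concentrations, incubate 48 h, interpolate endpoints linearly. TGI: concentration producing complete growth inhibition.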

Experiments:
Experiment in all cases: DTP human tumour cell line panel, 48 h
COLO 205 colon = test system: COLO 205 colon
OVCAR-8 ovarian = test system: OVCAR-8 ovarian
UACC-62 melanoma = test system: UACC-62 melanoma
BT-549 breast = test system: BT-549 breast
ACHN renal = test system: ACHN renal
SF-268 CNS = test system: SF-268 CNS
HCT-116 colon = test system: HCT-116 colon
NCI/ADR-RES ovarian = test system: NCI/ADR-RES ovarian
MALME-3M melanoma = test system: MALME-3M melanoma
SK-OV-3 ovarian = test system: SK-OV-3 ovarian
OVCAR-5 ovarian = test system: OVCAR-5 ovarian
TK-10 renal = test system: TK-10 renal
UACC-257 melanoma = test system: UACC-257 melanoma
HCT-15 colon = test system: HCT-15 colon
MDA-N = test system: MDA-N
PC-3 prostate = test system: PC-3 prostate
OVCAR-3 ovarian = test system: OVCAR-3 ovarian
SW-620 colon = test system: SW-620 colon
SK-MEL-2 melanoma = test system: SK-MEL-2 melanoma
T-47D breast = test system: T-47D breast
786-0 renal = test system: 786-0 renal
HCC-2998 colon = test system: HCC-2998 colon
A549 NSCLC = test system: A549 NSCLC
SF-295 CNS = test system: SF-295 CNS
RPMI-8226 leukemia = test system: RPMI-8226 leukemia
K-562 leukemia = test system: K-562 leukemia
EKVX NSCLC = test system: EKVX NSCLC
CAKI-1 renal = test system: CAKI-1 renal
SF-539 CNS = test system: SF-539 CNS
NCI-H23 lung = test system: NCI-H23 lung
HOP-62 NSCLC = test system: HOP-62 NSCLC
OVCAR-4 ovarian = test system: OVCAR-4 ovarian
M14 melanoma = test system: M14 melanoma
SK-MEL-28 melanoma = test system: SK-MEL-28 melanoma
MDA-MB-435 = test system: MDA-MB-435
CCRF-CEM leukemia = test system: CCRF-CEM leukemia
MOLT-4 leukemia = test system: MOLT-4 leukemia
U251 CNS = test system: U251 CNS
NCI-H460 lung = test system: NCI-H460 lung
MDA-MB-231 breast = test system: MDA-MB-231 breast
RXF 393 renal = test system: RXF 393 renal
UO-31 renal = test system: UO-31 renal
NCI-H522 lung = test system: NCI-H522 lung
IGROV1 ovarian = test system: IGROV1 ovarian
SN12C renal = test system: SN12C renal
MCF7 breast = test system: MCF7 breast
SK-MEL-5 melanoma = test system: SK-MEL-5 melanoma
HT29 colon = test system: HT29 colon
KM12 colon = test system: KM12 colon
LOX IMVI melanoma = test system: LOX IMVI melanoma
SNB-75 CNS = test system: SNB-75 CNS
DU-145 prostate = test system: DU-145 prostate
SNB-19 CNS = test system: SNB-19 CNS
HOP-92 NSCLC = test system: HOP-92 NSCLC
HS 578T breast = test system: HS 578T breast
A498 renal = test system: A498 renal
HL-60(TB) leukemia = test system: HL-60(TB) leukemia
NCI-H226 lung = test system: NCI-H226 lung
SR leukemia = test system: SR leukemia

COc1ccc(N[C@H](CS(=O)c2ccc(C)cc2)c2ccc(F)cc2)cc1 (stereo partly drawn)
TGI (COLO 205 colon): > 100 µM | TGI (OVCAR-8 ovarian): > 100 µM | TGI (UACC-62 melanoma): > 100 µM | TGI (BT-549 breast): > 100 µM | TGI (ACHN renal): > 100 µM | TGI (SF-268 CNS): 94.5 µM | TGI (HCT-116 colon): > 100 µM | TGI (NCI/ADR-RES ovarian): > 100 µM | TGI (MALME-3M melanoma): > 100 µM | TGI (SK-OV-3 ovarian): > 100 µM | TGI (OVCAR-5 ovarian): > 100 µM | TGI (TK-10 renal): > 100 µM | TGI (UACC-257 melanoma): > 100 µM | TGI (HCT-15 colon): > 100 µM | TGI (MDA-N): > 100 µM | TGI (PC-3 prostate): > 100 µM | TGI (OVCAR-3 ovarian): > 100 µM | TGI (SW-620 colon): > 100 µM | TGI (SK-MEL-2 melanoma): > 100 µM | TGI (T-47D breast): > 100 µM | TGI (786-0 renal): > 100 µM | TGI (HCC-2998 colon): > 100 µM | TGI (A549 NSCLC): > 100 µM | TGI (SF-295 CNS): > 100 µM | TGI (RPMI-8226 leukemia): > 100 µM | TGI (K-562 leukemia): > 100 µM | TGI (EKVX NSCLC): > 100 µM | TGI (CAKI-1 renal): > 100 µM | TGI (SF-539 CNS): 56.7 µM | TGI (NCI-H23 lung): > 100 µM | TGI (HOP-62 NSCLC): > 100 µM | TGI (OVCAR-4 ovarian): > 100 µM | TGI (M14 melanoma): > 100 µM | TGI (SK-MEL-28 melanoma): > 100 µM | TGI (MDA-MB-435): > 100 µM | TGI (CCRF-CEM leukemia): > 100 µM | TGI (MOLT-4 leukemia): > 100 µM | TGI (U251 CNS): > 100 µM | TGI (NCI-H460 lung): > 100 µM | TGI (MDA-MB-231 breast): > 100 µM | TGI (RXF 393 renal): > 100 µM | TGI (UO-31 renal): > 100 µM | TGI (NCI-H522 lung): > 100 µM | TGI (IGROV1 ovarian): 47.4 µM | TGI (SN12C renal): > 100 µM | TGI (MCF7 breast): > 100 µM | TGI (SK-MEL-5 melanoma): > 100 µM | TGI (HT29 colon): > 100 µM | TGI (KM12 colon): > 100 µM | TGI (LOX IMVI melanoma): > 100 µM | TGI (SNB-75 CNS): 81.7 µM | TGI (DU-145 prostate): > 100 µM | TGI (SNB-19 CNS): > 100 µM

CCC(CCCN)Nc1cc(OC)cc2cccnc12 (stereo not drawn)
TGI (COLO 205 colon): > 100 µM | TGI (OVCAR-8 ovarian): > 100 µM | TGI (UACC-62 melanoma): > 100 µM | TGI (HOP-92 NSCLC): > 100 µM | TGI (BT-549 breast): > 100 µM | TGI (HS 578T breast): > 100 µM | TGI (A498 renal): > 100 µM | TGI (ACHN renal): > 100 µM | TGI (SF-268 CNS): > 100 µM | TGI (HCT-116 colon): > 100 µM | TGI (NCI/ADR-RES ovarian): > 100 µM | TGI (MALME-3M melanoma): > 100 µM | TGI (SK-OV-3 ovarian): > 100 µM | TGI (OVCAR-5 ovarian): > 100 µM | TGI (TK-10 renal): > 100 µM | TGI (UACC-257 melanoma): 62.8 µM | TGI (HCT-15 colon): > 100 µM | TGI (MDA-N): > 100 µM | TGI (PC-3 prostate): > 100 µM | TGI (OVCAR-3 ovarian): > 100 µM | TGI (SW-620 colon): > 100 µM | TGI (SK-MEL-2 melanoma): > 100 µM | TGI (786-0 renal): > 100 µM | TGI (HCC-2998 colon): 52.7 µM | TGI (HL-60(TB) leukemia): 51.1 µM | TGI (A549 NSCLC): > 100 µM | TGI (SF-295 CNS): > 100 µM | TGI (K-562 leukemia): > 100 µM | TGI (NCI-H226 lung): > 100 µM | TGI (EKVX NSCLC): > 100 µM | TGI (CAKI-1 renal): > 100 µM | TGI (SF-539 CNS): > 100 µM | TGI (HOP-62 NSCLC): > 100 µM | TGI (OVCAR-4 ovarian): > 100 µM | TGI (M14 melanoma): > 100 µM | TGI (SR leukemia): > 100 µM | TGI (SK-MEL-28 melanoma): > 100 µM | TGI (MDA-MB-435): > 100 µM | TGI (CCRF-CEM leukemia): > 100 µM | TGI (NCI-H460 lung): > 100 µM | TGI (MDA-MB-231 breast): > 100 µM | TGI (RXF 393 renal): > 100 µM | TGI (UO-31 renal): > 100 µM | TGI (IGROV1 ovarian): > 100 µM | TGI (SN12C renal): > 100 µM | TGI (MCF7 breast): > 100 µM | TGI (SK-MEL-5 melanoma): > 100 µM | TGI (HT29 colon): > 100 µM | TGI (KM12 colon): > 100 µM | TGI (LOX IMVI melanoma): > 100 µM | TGI (SNB-75 CNS): > 100 µM | TGI (DU-145 prostate): > 100 µM | TGI (SNB-19 CNS): > 100 µM

Cc1c(-c2c(C)c3ccccc3n2S(=O)(=O)c2ccccc2)n(S(=O)(=O)c2ccccc2)c2ccccc12
TGI (COLO 205 colon): > 100 µM | TGI (OVCAR-8 ovarian): > 100 µM | TGI (UACC-62 melanoma): > 100 µM | TGI (HOP-92 NSCLC): > 100 µM | TGI (BT-549 breast): > 100 µM | TGI (HS 578T breast): > 100 µM | TGI (A498 renal): > 100 µM | TGI (ACHN renal): > 100 µM | TGI (SF-268 CNS): > 100 µM | TGI (HCT-116 colon): > 100 µM | TGI (NCI/ADR-RES ovarian): > 100 µM | TGI (MALME-3M melanoma): 13.1 µM | TGI (SK-OV-3 ovarian): > 100 µM | TGI (OVCAR-5 ovarian): > 100 µM | TGI (TK-10 renal): > 100 µM | TGI (UACC-257 melanoma): > 100 µM | TGI (HCT-15 colon): > 100 µM | TGI (MDA-N): > 100 µM | TGI (PC-3 prostate): > 100 µM | TGI (OVCAR-3 ovarian): > 100 µM | TGI (SW-620 colon): > 100 µM | TGI (SK-MEL-2 melanoma): > 100 µM | TGI (786-0 renal): 42.9 µM | TGI (HCC-2998 colon): > 69 µM | TGI (HL-60(TB) leukemia): > 100 µM | TGI (A549 NSCLC): > 100 µM | TGI (SF-295 CNS): > 100 µM | TGI (RPMI-8226 leukemia): > 100 µM | TGI (K-562 leukemia): > 100 µM | TGI (NCI-H226 lung): > 100 µM | TGI (EKVX NSCLC): > 100 µM | TGI (CAKI-1 renal): > 100 µM | TGI (SF-539 CNS): > 100 µM | TGI (NCI-H23 lung): > 100 µM | TGI (HOP-62 NSCLC): > 87.3 µM | TGI (OVCAR-4 ovarian): > 100 µM | TGI (M14 melanoma): > 100 µM | TGI (SR leukemia): > 100 µM | TGI (SK-MEL-28 melanoma): > 100 µM | TGI (MDA-MB-435): > 100 µM | TGI (CCRF-CEM leukemia): > 100 µM | TGI (MOLT-4 leukemia): > 100 µM | TGI (U251 CNS): > 100 µM | TGI (NCI-H460 lung): 16.3 µM | TGI (MDA-MB-231 breast): > 100 µM | TGI (UO-31 renal): > 100 µM | TGI (NCI-H522 lung): > 100 µM | TGI (IGROV1 ovarian): > 100 µM | TGI (SN12C renal): > 100 µM | TGI (MCF7 breast): > 100 µM | TGI (SK-MEL-5 melanoma): > 94.1 µM | TGI (HT29 colon): > 100 µM | TGI (KM12 colon): > 100 µM | TGI (LOX IMVI melanoma): > 100 µM | TGI (SNB-75 CNS): > 31.6 µM | TGI (DU-145 prostate): > 33.5 µM | TGI (SNB-19 CNS): > 100 µM
